Test results from patent US4816449A, “Immunotherapeutic anti-inflammatory peptide agents” (Immunetech Pharmaceuticals, priority 1986, dated 1989).
Where a SMILES comes first, the peptide text is derived from it. Where no end group is shown, it is not given here.

What was measured:
mouse macrophages = conditions: Stanworth, Mol. Immunol. 19, 1245 (1982); cited from earlier work
[1] = tested on: human natural killer (NK) cell-induced cytotoxicity against K562 human erythroleukemia cells; assay: natural killer (NK) cell assay, chromium 51 release; assay type: cell-based
Experimental: 1. To calculate percent inhibition, the average of the three dilutions of
2. N K effector cells were human mononuclear cells freshly isolated by
when incubated with normal human mononuclear cells (lymphocytes and monocytes) separated by ficoll-metronidazole gradient. […] E., et al., J. Clin. Invest. 67:1324, 1981).
The target cells used were a human erythroleukemia cell line K562 which has molecular structures recognized by NK cells. The K562 targets were prepared by incubating them with the radioactive isotope chromium 51 which is incorporated within the cells. The cells were then washed to remove externally adherent chromium 51 and 20,000 K562 cells were added to 400,000, 200,000 and 100,000 mononuclear cells to provide NK killer-to-target ratio of 20 to 1, 10 to 1, and 5 to 1, respectively, in a final volume of 200 microliters. After a 3-hour incubation at 37° C. in a 5% CO2 atmosphere, the amount of chromium 51 in the supernatent (released from dead target cells) was counted to quantitate the amount of NK killing activity. The killing activity of peptide-treatedcells was compared to non-peptide treated cells to assess the peptide's effect on NK killing activity.

[2] = tested on: macrophage IgG Fc receptors of mice; conditions: Stanworth, Mol. Immunol. 19, 1245 (1982); cited from earlier work
[3] = tested on: human monocyte IgG Fc receptors; conditions: cited from earlier work
[4] = biological target: T1, IgE Fc receptors on a human lymphoblastoid cell line (wil-2wt) (Homo sapiens, UniProt P06734); conditions: Hamburger, Immunology 38, 781 (1979); cited from earlier work
T1 construct: IgE Fc receptors on a human lymphoblastoid cell line (wil-2wt); host or cells: wil-2wt human lymphoblastoid cell line (endogenous receptor)
T1 sequence (P06734 1-321): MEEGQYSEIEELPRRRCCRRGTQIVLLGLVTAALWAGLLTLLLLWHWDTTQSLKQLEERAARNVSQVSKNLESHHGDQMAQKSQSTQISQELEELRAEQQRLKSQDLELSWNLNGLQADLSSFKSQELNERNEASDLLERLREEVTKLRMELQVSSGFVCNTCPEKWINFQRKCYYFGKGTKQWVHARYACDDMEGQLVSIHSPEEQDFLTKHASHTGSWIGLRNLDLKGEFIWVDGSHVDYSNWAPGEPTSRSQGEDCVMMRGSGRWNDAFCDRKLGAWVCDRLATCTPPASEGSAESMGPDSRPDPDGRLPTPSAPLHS

human mast cells = conditions: Stanworth et al. 1979; cited from earlier work
rodent mast cells = conditions: Stanworth et al. 1979; cited from earlier work
[5] = peptide 100 μg/ml, (killer-to-target ratio 20 to 1)

Compound	% cytotoxicity ([1]; peptide 25 μg/ml, 5 to 1) [%]	% cytotoxicity ([1]; peptide 25 μg/ml, 10 to 1) [%]	% cytotoxicity ([1]; peptide 25 μg/ml, 20 to 1) [%]	% cytotoxicity ([1]; peptide 50 μg/ml, 5 to 1) [%]	% cytotoxicity ([1]; peptide 50 μg/ml, 10 to 1) [%]	% cytotoxicity ([1]; peptide 50 μg/ml, 20 to 1) [%]	% cytotoxicity ([1]; peptide 100 μg/ml, 5 to 1) [%]	% cytotoxicity ([1]; peptide 100 μg/ml, 10 to 1) [%]	% cytotoxicity [1, 5] [%]	also measured
VFSRLEVTRAE [peptide identical to a portion of Cε 4 of human IgE at aa 505-515]										effect on binding of 125I-human IgG to mouse macrophages (mouse macrophages): marked enhancement
C[C@H](NC(=O)[C@H](CC(=O)O)NC(=O)[C@@H]1CCCN1)C(=O)N[C@@H](CCCNC(=N)N)C(=O)O [Pro--Asp--Ala-- Arg, Pro-Asp-Ala-Arg] (H-PDAR-OH)	10.1	17.8	22.7	10.3	15.5	23.1	5.6	10.4	17.1	
C[C@H](NC(=O)[C@@H](N)CC(=O)O)C(=O)N[C@@H](CCCNC(=N)N)C(=O)N[C@@H](Cc1c[nH]cn1)C(=O)O [Asp--Ala--Arg--His, Asp-Ala-Arg-His] (H-DARH-OH)	6.8	12.9	19.3	7.5	12.8	13.8	10.5	16.4	24.5	
YSKLTVDKSR [decapeptide from human IgG, identical to IgG aa 407-416]										blocking of human IgG binding to macrophage IgG Fc receptors of mice [2]: blocked human IgG binding
C[C@H](N)C(=O)N[C@@H](CCCNC(=N)N)C(=O)N[C@@H](Cc1c[nH]cn1)C(=O)N[C@@H](CO)C(=O)O [Ala--Arg--His--Ser, Ala-Arg-His-Ser] (H-ARHS-OH)	12.5	19.4	24.8	10.4	20.7	26.3	10.6	18.5	21.8	
QYDSTYR [peptide identical to IgG aa 295-301]										blocking of IgG binding to human monocyte IgG Fc receptors [3]: could slightly block
PDARHS [hexapeptide derived from Cε 4 at aa 476-481]										blocking of human IgE-binding to IgE Fc receptors on wil-2wt cells [4]: could block
PRKTKGSGFFVF [peptide identical to portion of Cε 4 of human IgE, aa 495-506]										degranulation of human mast cells (human mast cells): able to cause degranulation; degranulation of rodent mast cells (rodent mast cells): able to cause degranulation
